Remaining activity data for four compounds are collected here from PMC7827406, “Structure–Activity Relationship (SAR) Study of Spautin-1 to Entail the Discovery of Novel NEK4 Inhibitors” (International Journal of Molecular Sciences, 2021).

Holding throughout (test): biochemical
Set-up in all cases: Eurofins KinaseProfiler full panel at Km ATP, residual kinase activity (%) relative to DMSO

The target in one experiment is T1, CHK2(h) (Homo sapiens, UniProt O96017).
T1 construct: gene CHEK2
Put shortly:
(§1)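 Two 10 µM single-concentration screens were run: a competition-binding screen, in which DNA-tagged kinase bound to immobilized ligands was quantified by qPCR, and a radiometric activity panel at Km ATP. Each is expressed as residual kinase activity (%).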

The target of a further experiment is T2, ZAP-70(h) (Homo sapiens, UniProt P43403).
T2 construct: gene ZAP70
T2 sequence (P43403 1-619): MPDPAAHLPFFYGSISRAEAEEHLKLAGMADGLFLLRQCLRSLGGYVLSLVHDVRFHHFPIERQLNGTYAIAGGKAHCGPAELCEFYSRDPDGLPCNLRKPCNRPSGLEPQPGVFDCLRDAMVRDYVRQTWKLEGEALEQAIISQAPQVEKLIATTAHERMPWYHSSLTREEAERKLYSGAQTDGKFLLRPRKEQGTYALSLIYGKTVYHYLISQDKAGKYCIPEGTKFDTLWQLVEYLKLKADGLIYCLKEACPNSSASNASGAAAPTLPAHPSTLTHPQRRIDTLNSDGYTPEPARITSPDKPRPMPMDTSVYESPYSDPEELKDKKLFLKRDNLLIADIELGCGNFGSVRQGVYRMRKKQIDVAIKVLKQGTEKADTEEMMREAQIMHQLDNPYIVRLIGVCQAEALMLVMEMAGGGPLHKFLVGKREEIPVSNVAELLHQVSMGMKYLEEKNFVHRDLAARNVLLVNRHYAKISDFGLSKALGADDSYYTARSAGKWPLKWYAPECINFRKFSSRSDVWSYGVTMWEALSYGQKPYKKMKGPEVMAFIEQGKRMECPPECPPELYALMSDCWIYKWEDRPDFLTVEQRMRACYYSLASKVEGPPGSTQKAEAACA
The procedure, abridged:
as §1

Experiment [1] concerns the target T3, PI3 Kinase (p110b/p85a)(m) (Mus musculus, UniProt Q8BTI9).
T3 construct: gene Pik3cb
Put shortly: as §1

A further experiment has as its target T4, MSSK1(h) (Homo sapiens, UniProt Q9UPE1).
T4 construct: gene SRPK3
The procedure, abridged: as §1

Another experiment deals with T5, GRK1(h) (Homo sapiens, UniProt Q15835).
T5 sequence (Q15835 1-563): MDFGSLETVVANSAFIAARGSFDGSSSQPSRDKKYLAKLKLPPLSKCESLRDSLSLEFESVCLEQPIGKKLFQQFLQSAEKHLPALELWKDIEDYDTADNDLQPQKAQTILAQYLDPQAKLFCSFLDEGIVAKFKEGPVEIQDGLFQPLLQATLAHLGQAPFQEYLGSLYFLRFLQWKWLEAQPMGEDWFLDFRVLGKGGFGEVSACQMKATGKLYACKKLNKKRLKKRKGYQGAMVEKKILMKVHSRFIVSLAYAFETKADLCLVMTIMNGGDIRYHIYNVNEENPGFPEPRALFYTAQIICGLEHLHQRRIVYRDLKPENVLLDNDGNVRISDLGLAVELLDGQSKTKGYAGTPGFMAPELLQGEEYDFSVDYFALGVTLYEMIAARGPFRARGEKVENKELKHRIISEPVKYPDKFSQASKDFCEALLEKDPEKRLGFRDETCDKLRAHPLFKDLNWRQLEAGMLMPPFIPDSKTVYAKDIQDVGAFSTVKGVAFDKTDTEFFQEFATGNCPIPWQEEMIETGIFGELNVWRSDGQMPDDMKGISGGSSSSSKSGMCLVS
The procedure, abridged: as §1

The target of experiment [2] is T6, PI3 Kinase (p110d/p85a)(m) (Mus musculus, UniProt O35904).
T6 construct: gene Pik3cd
T6 sequence (O35904 whole entry): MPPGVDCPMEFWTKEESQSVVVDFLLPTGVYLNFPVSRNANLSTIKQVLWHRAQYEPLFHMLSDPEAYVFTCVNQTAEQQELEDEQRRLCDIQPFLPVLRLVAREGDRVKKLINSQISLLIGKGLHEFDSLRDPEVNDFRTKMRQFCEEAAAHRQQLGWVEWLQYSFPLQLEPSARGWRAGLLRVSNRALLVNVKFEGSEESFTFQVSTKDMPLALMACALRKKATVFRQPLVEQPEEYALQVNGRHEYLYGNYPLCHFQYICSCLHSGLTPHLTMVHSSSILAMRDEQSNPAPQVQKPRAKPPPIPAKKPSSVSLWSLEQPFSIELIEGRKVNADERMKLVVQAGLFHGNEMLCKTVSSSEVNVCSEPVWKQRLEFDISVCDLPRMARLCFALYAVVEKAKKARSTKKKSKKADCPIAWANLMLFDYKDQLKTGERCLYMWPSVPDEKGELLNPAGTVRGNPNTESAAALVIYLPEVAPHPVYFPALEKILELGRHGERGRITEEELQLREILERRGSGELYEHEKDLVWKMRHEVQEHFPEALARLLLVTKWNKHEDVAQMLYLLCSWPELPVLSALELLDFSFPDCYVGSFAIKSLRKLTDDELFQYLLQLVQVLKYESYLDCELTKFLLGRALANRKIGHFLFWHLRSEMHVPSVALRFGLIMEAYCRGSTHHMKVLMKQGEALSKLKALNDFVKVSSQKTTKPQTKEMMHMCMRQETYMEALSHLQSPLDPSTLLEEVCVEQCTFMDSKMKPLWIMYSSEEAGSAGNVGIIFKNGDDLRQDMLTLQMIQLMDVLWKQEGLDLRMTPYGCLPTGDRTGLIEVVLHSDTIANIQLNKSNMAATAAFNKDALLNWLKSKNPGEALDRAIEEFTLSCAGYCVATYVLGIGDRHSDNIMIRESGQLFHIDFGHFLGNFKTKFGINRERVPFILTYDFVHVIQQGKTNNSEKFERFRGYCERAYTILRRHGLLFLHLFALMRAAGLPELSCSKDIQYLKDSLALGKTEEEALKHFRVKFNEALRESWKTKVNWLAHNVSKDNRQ
T6 sequence (P26450 whole entry partner): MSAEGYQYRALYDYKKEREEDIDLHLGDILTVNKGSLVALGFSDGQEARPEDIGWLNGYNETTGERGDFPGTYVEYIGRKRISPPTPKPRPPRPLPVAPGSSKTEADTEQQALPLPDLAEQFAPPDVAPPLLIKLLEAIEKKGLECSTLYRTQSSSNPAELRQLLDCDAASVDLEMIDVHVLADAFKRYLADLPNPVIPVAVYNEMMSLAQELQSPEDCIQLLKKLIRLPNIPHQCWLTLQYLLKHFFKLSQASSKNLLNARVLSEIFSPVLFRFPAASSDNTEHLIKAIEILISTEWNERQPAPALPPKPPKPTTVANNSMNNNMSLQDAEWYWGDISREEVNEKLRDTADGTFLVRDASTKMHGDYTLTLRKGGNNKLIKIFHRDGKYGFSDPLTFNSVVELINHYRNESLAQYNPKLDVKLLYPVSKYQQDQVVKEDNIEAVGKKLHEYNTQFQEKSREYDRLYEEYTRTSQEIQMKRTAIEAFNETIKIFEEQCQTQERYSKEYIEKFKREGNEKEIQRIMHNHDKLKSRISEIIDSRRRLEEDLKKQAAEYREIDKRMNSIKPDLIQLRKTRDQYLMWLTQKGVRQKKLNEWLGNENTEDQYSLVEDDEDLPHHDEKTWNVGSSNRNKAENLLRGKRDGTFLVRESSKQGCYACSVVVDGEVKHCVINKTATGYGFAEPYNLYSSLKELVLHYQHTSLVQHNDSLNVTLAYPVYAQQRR
The procedure, abridged: as §1

Another experiment has as its target T7, DCAMKL3(h) (Homo sapiens, UniProt Q9C098).
T7 construct: gene DCLK3
T7 sequence (Q9C098 1-648): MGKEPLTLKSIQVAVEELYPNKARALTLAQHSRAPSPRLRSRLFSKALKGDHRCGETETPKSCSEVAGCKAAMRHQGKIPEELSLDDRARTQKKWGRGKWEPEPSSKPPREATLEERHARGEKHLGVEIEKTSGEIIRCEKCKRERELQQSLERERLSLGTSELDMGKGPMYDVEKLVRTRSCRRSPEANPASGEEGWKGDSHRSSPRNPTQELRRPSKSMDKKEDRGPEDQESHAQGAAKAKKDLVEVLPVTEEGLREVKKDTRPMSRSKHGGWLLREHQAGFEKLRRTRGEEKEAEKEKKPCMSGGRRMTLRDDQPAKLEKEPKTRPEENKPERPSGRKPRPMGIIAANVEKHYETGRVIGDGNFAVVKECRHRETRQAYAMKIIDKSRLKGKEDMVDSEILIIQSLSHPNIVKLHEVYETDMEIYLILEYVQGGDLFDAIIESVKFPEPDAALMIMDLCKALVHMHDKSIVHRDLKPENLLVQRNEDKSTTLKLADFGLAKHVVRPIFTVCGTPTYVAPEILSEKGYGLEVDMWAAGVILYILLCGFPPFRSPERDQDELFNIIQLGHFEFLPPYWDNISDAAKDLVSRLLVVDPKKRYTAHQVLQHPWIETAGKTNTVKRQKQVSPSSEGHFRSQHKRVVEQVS
Put shortly: as §1

Setting [3] is: read-out: Residual activity (%) Spautin-1 5aa.
[4] abbreviates: read-out: Residual activity (%) 5as.
The mark [5] stands for this setting: read-out: Residual activity (%) 5at.
Setting [6] is: read-out: Residual activity (%) 5ay.

Read-outs that look alike come from different tables or passages of the source.

T4 sequence (Q9UPE1 whole entry): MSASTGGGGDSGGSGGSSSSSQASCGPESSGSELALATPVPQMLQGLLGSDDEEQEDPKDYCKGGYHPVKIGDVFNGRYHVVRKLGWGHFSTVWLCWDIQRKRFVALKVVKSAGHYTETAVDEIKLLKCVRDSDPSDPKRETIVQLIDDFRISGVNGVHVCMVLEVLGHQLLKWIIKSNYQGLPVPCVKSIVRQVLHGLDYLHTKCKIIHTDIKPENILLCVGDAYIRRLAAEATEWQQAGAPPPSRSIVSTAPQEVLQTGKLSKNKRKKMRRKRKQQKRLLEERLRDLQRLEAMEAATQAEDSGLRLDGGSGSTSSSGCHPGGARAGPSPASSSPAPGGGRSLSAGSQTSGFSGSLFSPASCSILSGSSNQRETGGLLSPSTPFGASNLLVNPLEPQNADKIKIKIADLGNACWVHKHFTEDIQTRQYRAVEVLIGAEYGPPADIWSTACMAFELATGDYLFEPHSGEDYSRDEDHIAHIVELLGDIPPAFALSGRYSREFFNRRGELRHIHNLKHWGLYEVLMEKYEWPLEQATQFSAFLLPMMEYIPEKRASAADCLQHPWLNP
T1 sequence (O96017 whole entry): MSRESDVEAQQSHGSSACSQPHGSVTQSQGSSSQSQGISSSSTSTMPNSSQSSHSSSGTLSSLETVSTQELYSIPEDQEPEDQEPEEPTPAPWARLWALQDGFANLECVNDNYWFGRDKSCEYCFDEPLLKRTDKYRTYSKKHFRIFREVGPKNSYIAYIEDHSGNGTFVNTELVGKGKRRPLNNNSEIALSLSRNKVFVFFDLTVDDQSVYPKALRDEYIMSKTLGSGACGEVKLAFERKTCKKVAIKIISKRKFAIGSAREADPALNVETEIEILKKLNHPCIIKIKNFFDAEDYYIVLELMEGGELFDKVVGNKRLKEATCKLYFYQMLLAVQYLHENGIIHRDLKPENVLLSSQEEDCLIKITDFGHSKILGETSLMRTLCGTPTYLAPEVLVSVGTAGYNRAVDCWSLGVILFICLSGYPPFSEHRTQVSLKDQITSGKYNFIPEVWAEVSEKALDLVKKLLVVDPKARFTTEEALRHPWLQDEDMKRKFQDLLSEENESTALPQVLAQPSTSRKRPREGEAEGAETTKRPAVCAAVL
T3 sequence (Q8BTI9 whole entry): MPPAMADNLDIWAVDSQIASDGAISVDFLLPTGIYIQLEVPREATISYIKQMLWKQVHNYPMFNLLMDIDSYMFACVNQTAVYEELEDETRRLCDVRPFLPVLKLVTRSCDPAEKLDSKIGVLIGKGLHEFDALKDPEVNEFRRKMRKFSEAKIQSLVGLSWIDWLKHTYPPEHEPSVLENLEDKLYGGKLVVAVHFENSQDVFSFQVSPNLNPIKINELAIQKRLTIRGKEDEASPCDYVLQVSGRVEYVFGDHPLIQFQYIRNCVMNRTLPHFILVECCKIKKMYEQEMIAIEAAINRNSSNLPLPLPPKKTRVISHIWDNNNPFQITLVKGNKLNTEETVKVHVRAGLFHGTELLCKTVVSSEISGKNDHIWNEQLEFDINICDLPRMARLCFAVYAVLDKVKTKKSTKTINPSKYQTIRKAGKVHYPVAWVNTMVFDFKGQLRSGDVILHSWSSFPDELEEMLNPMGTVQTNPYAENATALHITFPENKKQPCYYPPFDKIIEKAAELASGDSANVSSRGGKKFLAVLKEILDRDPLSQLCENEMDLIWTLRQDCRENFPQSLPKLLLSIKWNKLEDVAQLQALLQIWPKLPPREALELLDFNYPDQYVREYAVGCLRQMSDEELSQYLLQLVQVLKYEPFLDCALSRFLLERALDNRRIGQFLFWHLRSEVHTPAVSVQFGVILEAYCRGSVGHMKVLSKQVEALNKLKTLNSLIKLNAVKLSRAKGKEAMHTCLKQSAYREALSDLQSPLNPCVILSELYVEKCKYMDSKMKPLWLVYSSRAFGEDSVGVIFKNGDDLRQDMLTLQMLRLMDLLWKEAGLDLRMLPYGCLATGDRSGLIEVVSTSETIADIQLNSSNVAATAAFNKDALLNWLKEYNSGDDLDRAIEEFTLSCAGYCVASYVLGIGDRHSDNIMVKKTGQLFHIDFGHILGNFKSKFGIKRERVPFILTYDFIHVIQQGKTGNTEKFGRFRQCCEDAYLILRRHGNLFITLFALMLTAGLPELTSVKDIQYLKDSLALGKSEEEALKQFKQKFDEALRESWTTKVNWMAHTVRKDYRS
T3 sequence (P26450 whole entry partner): as the sequence (P26450 whole entry partner) above

Consider `Fc1ccc(CNc2ncnc3ccc(F)cc23)cc1` [5aa, 6-Fluoro-N-(4-fluorobenzyl)-4-Quinazolinamine], for which the remaining activity at 10 µM on CHK2(h) (setting [3]) is 67%; at ZAP-70(h) (setting [3]) it was 146%; in experiment [1] (setting [3]) it was 102%; on MSSK1(h) (setting [3]), 85%; at GRK1(h) (setting [3]), 101%; in experiment [2] (setting [3]) it was 97%. Also, the remaining activity at 10 µM at DCAMKL3(h) (setting [3]) was found to be 102%.
For `Fc1ccc(CCNc2ncnc3ccc(F)cc23)cc1` [5as, 6-Fluoro-N-[2-(4-Fluorophenyl)Ethyl]-4-Quinazolinamine], the remaining activity at 10 µM on CHK2(h) (setting [4]) was determined as 73%; on ZAP-70(h) (setting [4]), 146%; in experiment [1] (setting [4]), 98%; at MSSK1(h) (setting [4]) it was 91%; on GRK1(h) (setting [4]), 79%; in experiment [2] (setting [4]), 93%. Besides, at DCAMKL3(h) (setting [4]), the remaining activity at 10 µM amounted to 108%.
In the case of `Fc1ccc2ncnc(NCCc3ccc(Cl)cc3)c2c1` [5at, N-[2-(4-Chlorophenyl)Ethyl]-6-Fluoro-4-Quinazolinamine], the remaining activity at 10 µM at CHK2(h) (setting [5]) is 75%; on ZAP-70(h) (setting [5]), 130%; in experiment [1] (setting [5]), 101%; on MSSK1(h) (setting [5]), 95%; at GRK1(h) (setting [5]), 81%; in experiment [2] (setting [5]) it was 93%. In addition, the remaining activity at 10 µM at DCAMKL3(h) (setting [5]) was 107%.
Regarding `COc1ccc2ncnc(Nc3cccc(F)c3)c2c1` [5ay, N-(3-Fluorophenyl)-6-Methoxy-4-Quinazolinamine], the remaining activity at 10 µM on CHK2(h) (setting [6]) amounted to 67%; on ZAP-70(h) (setting [6]) it was 113%; in experiment [1] (setting [6]) it was 99%; at MSSK1(h) (setting [6]) it was 81%; on GRK1(h) (setting [6]), 88%; in experiment [2] (setting [6]), 96%. The remaining activity at 10 µM on DCAMKL3(h) (setting [6]) was 108%.
